Key:
USP7 = target: T1, USP7 (Homo sapiens, UniProt Q93009, C315A); assay: Inhibition of USP7 by Fluorescence Intensity (FLINT) readings, Ubiquitin-Rhodamine-110 substrate; format: biochemical; settings: 0.25 nM His-His-USP7 (aa208-560, [C315A]); compound 60 minutes at 30° C.; 500 nM Ubiquitin-Rhodamine substrate; 11-point curves
T1 construct: 0.25 nM His-His-USP7 (aa208-560, [C315A]) was incubated with compound; His-His (N)
Summary of the method: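 His-His-USP7 (aa208-560, C315A) at 0.25 nM was preincubated with compound for 60 min at 30 °C in 100 mM Bicine pH 8.0, 0.01% Triton X-100, 1 mM TCEP, 10% DMSO. 500 nM ubiquitin-rhodamine-110 was then added, with fluorescence (Ex 485/Em 535 nm) read every 3 min for 21 min. IC50 came from kinetic-rate inhibition, 11-point curves, 4-parameter fit.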

[1] = test system: MM 1S multiple myeloma tumour cell line; assay: In vitro cytotoxicity, MTT assay, MM1S cells; format: cell-based; settings: Homo sapiens, MM1.S, 96 hours exposure
Experimental: (§1) The cytotoxicity studies were evaluated by MTT assay and carried out on MM 1S multiple myeloma or Z138 mantle cell lymphoma tumour cell lines. The cells are distributed onto microplates and exposed to the test compounds for 96 hours. The cell viability is then quantified by a colorimetric assay, the Microculture Tetrazolium Assay (Carmichael et. al., Cancer Res. […], 47, 936-942).

[2] = test system: Z138 mantle cell lymphoma tumour cell line; assay: In vitro cytotoxicity, MTT assay, Z138 cells; format: cell-based; settings: Homo sapiens, Z-138; Z138 tumour cell line (underlined values); 96 hours exposure
Experimental: as §1

T1 sequence (Q93009 208-560 C315A): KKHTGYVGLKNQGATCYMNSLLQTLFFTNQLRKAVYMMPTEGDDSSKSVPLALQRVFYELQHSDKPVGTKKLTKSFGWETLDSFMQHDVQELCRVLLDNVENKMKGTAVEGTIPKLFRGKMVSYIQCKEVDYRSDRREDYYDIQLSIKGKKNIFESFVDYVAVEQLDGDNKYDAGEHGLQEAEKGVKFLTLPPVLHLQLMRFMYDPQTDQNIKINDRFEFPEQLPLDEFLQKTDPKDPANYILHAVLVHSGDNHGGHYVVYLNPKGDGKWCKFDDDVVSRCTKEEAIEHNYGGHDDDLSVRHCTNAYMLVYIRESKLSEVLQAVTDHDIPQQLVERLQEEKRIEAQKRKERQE

Row | Structure (SMILES) | IC50 (USP7) [nM] | IC50 [1] [nM] | IC50 [2] [nM]
1 | COc1ccc(-n2ccc3c(=O)n(CC4(O)CCN(C(=O)[C@@H]5CCCC[C@H]5n5cccc5)CC4)cnc32)cc1 (single isomer, unassigned) [Example 17, 3-[[4-hydroxy-1-[trans-2-pyrrol-1-ylcyclohexanecarbonyl]-4-piperidyl]methyl]-7-(4-methoxyphenyl)pyrrolo[2,3-d]pyrimidin-4-one] | 33.5 | 4.21 | 
2 | COc1ccc(-n2ccc3c(=O)n(CC4(O)CCN(C(=O)[C@@H]5CC(F)(F)CC[C@H]5c5ccccc5)CC4)cnc32)cc1 (single isomer, unassigned) [Example 30, 3-[[1-[trans-5,5-difluoro-2-phenyl-cyclohexanecarbonyl]-4-hydroxy-4-piperidyl]methyl]-7-(4-methoxyphenyl)pyrrolo[2,3-d]pyrimidin-4-one] | 15.9 | 10.8 | 
3 | COc1ccc(-n2ccc3c(=O)n(CC4(O)CCN(C(=O)[C@@H]5CCCO[C@H]5c5ccccc5)CC4)cnc32)cc1 (relative stereo) [Example 24, 3-[[4-hydroxy-1-[trans-2-phenyltetrahydropyran-3-carbonyl]-4-piperidyl]methyl]-7-(4-methoxyphenyl)pyrrolo[2,3-d]pyrimidin-4-one] | 217 | 146 | 
4 | O=C([C@@H]1CCCC(F)(F)[C@H]1c1ccccc1)N1CCC(O)(Cn2cnc3c(ccn3-c3ccccc3)c2=O)CC1 (relative stereo) [Example 52, 3-[[1-[trans-3,3-difluoro-2-phenyl-cyclohexanecarbonyl]-4-hydroxy-4-piperidyl]methyl]-7-phenyl-pyrrolo[2,3-d]pyrimidin-4-one] | 71.8 | 100 | 
5 | COc1ccc(-n2ccc3c(=O)n(CC4(O)CCN(C(=O)C5CCC(=O)N(C)C5c5ccccc5)CC4)cnc32)cc1 (single isomer, unassigned) [Example 117, 3-{[4-hydroxy-1-trans-1-methyl-6-oxo-2-phenylpiperidine-3-carbonyl)piperidin-4-yl]methyl}-7-(4-methoxyphenyl)-3,7-dihydro-4H-pyrrolo[2,3-d]pyrimidin-4-one] | 30.9 | 26.4 | 
6 | COc1ccc(-n2ccc3c(=O)n(CC4(O)CCN(C(=O)[C@@H]5CCCC[C@H]5c5ccc(F)cc5)CC4)cnc32)cc1 (single isomer, unassigned) [Example 41, 3-[[1-[trans-2-(4-fluorophenyl)cyclohexanecarbonyl]-4-hydroxy-4-piperidyl]methyl]-7-(4-methoxyphenyl)pyrrolo[2,3-d]pyrimidin-4-one] | 13 | 7.22 | 
7 | O=C(Cc1ccc2c(c1)NC(=O)C2)Nc1ccc2ncn(CC3(O)CCN(C(=O)[C@@H]4CCCC[C@H]4c4ccccc4)CC3)c(=O)c2n1 (relative stereo) [Example 102, N-[3-[[4-hydroxy-1-(trans-2-phenylcyclohexanecarbonyl)-4-piperidyl]methyl]-4-oxo-pyrido[3,2-d]pyrimidin-6-yl]-2-(2-oxoindolin-6-yl)acetamide] | 15.8 | 5390 | 
8 | COc1ccc(-n2ccc3c(=O)n(CC4(O)CCN(C(=O)[C@@H]5CCCC[C@H]5n5cccc5)CC4)cnc32)cc1 (racemic) [Example 15] | 26.1 | 8.76 | 
9 | CN1C(=O)CC[C@@H](C(=O)N2CCC(O)(Cn3cnc4c(ccn4-c4ccccc4)c3=O)CC2)[C@@H]1c1ccccc1 (single isomer, unassigned) [Example 27, 3-[[4-hydroxy-1-[trans-1-methyl-6-oxo-2-phenyl-piperidine-3-carbonyl]-4-piperidyl]methyl]-7-phenyl-pyrrolo[2,3-d]pyrimidin-4-one] | 31.5 | 46.5 | 
10 | COc1ccc(-n2ccc3c(=O)n(CC4(O)CCN(C(=O)[C@@H]5CCC(F)(F)C[C@H]5c5ccoc5)CC4)cnc32)cc1 (single isomer, unassigned) [Example 75, 3-[[1-[trans-4,4-difluoro-2-(3-furyl)cyclohexanecarbonyl]-4-hydroxy-4-piperidyl]methyl]-7-(4-methoxyphenyl)pyrrolo[2,3-d]pyrimidin-4-one] | 59.1 | 3.29 | 

Further lines, with some results ahead:

Row | IC50 (USP7) [nM] | Structure (SMILES) | IC50 [1] [nM] | IC50 [2] [nM]
11 | 71.1 | O=C([C@@H]1CCCC[C@H]1n1cccc1)N1CCC(O)(Cn2cnc3c(ccn3-c3ccccc3)c2=O)CC1 (racemic) [Example 12, 3-[[4-hydroxy-1-[trans-2-pyrrol-1-ylcyclohexanecarbonyl]-4-piperidyl]methyl]-7-phenyl-pyrrolo[2,3-d]pyrimidin-4-one] | 34.5 | 
12 | 27.1 | O=C([C@@H]1CCCC[C@H]1n1cccc1)N1CCC(O)(Cn2cnc3c(ccn3-c3ccccc3)c2=O)CC1 (single isomer, unassigned) [Example 14, 3-[[4-hydroxy-1-[trans-2-pyrrol-1-ylcyclohexanecarbonyl]-4-piperidyl]methyl]-7-phenyl-pyrrolo[2,3-d]pyrimidin-4-one] | 6.42 | 14.7
13 | 17.2 | O=C([C@@H]1CCCC[C@H]1c1ccccc1)N1CCC(O)(Cn2cnc3c(ccn3-c3ccsc3)c2=O)CC1 (relative stereo) [Example 23, 3-[[4-hydroxy-1-(trans-2-phenylcyclohexanecarbonyl)-4-piperidyl]methyl]-7-(3-thienyl)pyrrolo[2,3-d]pyrimidin-4-one] | 70.1 | 
14 | 26.9 | COc1ccc(-n2ccc3c(=O)n(CC4(O)CCN(C(=O)[C@@H]5CCCC[C@H]5c5ccccc5)CC4)cnc32)cc1 (relative stereo) [Example 21, 3-[[4-hydroxy-1-(trans-2-phenylcyclohexanecarbonyl) 4-piperidyl]methyl]-7-(4-methoxyphenyl)pyrrolo[2,3-d]pyrimidin-4-one] | 3.4 | 
15 | 35.9 | O=C([C@@H]1CCCC[C@H]1c1ccccc1)N1CCC(O)(Cn2cnc3c(ccn3-c3ccccc3)c2=O)CC1 (relative stereo) [Example 9, 3-[[4-hydroxy-1-(trans-2-phenylcyclohexanecarbonyl)-4-piperidyl]methyl]-7-phenyl-pyrrolo[2,3-d]pyrimidin-4-one] | 13.9 | 
16 | 46.3 | O=C(C1CC(F)CCC1c1ccccc1)N1CCC(O)(Cn2cnc3c(ccn3-c3ccccc3)c2=O)CC1 (centres unmarked) [Example 37, 3-[[1-[5-fluoro-2-phenyl-cyclohexanecarbonyl]-4-hydroxy-4-piperidyl]methyl]-7-phenyl-pyrrolo[2,3-d]pyrimidin-4-one] | 84.1 | 
17 | 50.6 | O=C([C@@H]1CCCC[C@H]1c1ccccc1)N1CCC(O)(Cn2cnc3c(nnn3-c3ccccc3)c2=O)CC1 (relative stereo) [Example 18, 6-[[4-hydroxy-1-(trans-2-phenylcyclohexanecarbonyl)-4-piperidyl]methyl]-3-phenyl-triazolo[4,5-d]pyrimidin-7-one] | 636 | 
18 | 9.81 | O=C([C@@H]1CCCC[C@H]1c1ccc(F)cc1)N1CCC(O)(Cn2cnc3c(ccn3-c3ccccc3)c2=O)CC1 (single isomer, unassigned) [Example 43, 3-[[1-[trans-2-(4-fluorophenyl)cyclohexanecarbonyl]-4-hydroxy-4-piperidyl]methyl]-7-phenyl-pyrrolo[2,3-d]pyrimidin-4-one] | 32.3 | 
19 | 31.6 | O=C([C@@H]1CCCC[C@H]1c1ccccc1)N1CCC(O)(Cn2cnc3c(ccn3-c3ccc(Cl)cc3)c2=O)CC1 (relative stereo) [Example 22, 7-(4-chlorophenyl)-3-[[4-hydroxy-1-(trans-2-phenylcyclohexanecarbonyl)-4-piperidyl]methyl]pyrrolo[2,3-d]pyrimidin-4-one] | 9.88 | 
20 | 35.3 | O=C([C@@H]1CC(F)(F)CC[C@H]1c1ccccc1)N1CCC(O)(Cn2cnc3c(ccn3-c3ccccc3)c2=O)CC1 (single isomer, unassigned) [Example 32, 3-[[1-[trans-5,5-difluoro-2-phenyl-cyclohexanecarbonyl]-4-hydroxy-4-piperidyl]methyl]-7-phenyl-pyrrolo[2,3-d]pyrimidin-4-one] | 15.8 | 
21 | 124 | O=C([C@@H]1CCCC[C@H]1c1ccccc1)N1CCC(O)(Cn2cnc3[nH]ccc3c2=O)CC1 (relative stereo) [Example 92, 3-[[4-hydroxy-1-(trans-2-phenylcyclohexanecarbonyl)-4-piperidyl]methyl]-7H-pyrrolo[2,3-d]pyrimidin-4-one] | 523 | 
22 | 29.3 | O=C([C@@H]1CCCC[C@H]1c1ccccc1)N1CCC(O)(Cn2cnc3c(ncn3-c3ccccc3)c2=O)CC1 (relative stereo) [Example 20, 1-[[4-hydroxy-1-(trans-2-phenylcyclohexanecarbonyl)-4-piperidyl]methyl]-9-phenyl-purin-6-one] | 210 | 
23 | 14.3 | O=C([C@@H]1CCCC[C@H]1c1ccccc1)N1CCC(O)(Cn2cnc3c(cnn3-c3ccccc3)c2=O)CC1 (relative stereo) [Example 19, 5-[[4-hydroxy-1-(trans-2-phenylcyclohexanecarbonyl)-4-piperidyl]methyl]-1-phenyl-pyrazolo[3,4-d]pyrimidin-4-one] | 195 | 

— patent US11332472B2, “Substituted piperidines as inhibitors of ubiquitin specific protease 7” (LES LABORATOIRES SERVIER, priority 2017, dated 2022)
